Reference: the supplement of paper PMC10307832

Tests used:
Test in all cases: relative viability (nuclei count vs DMSO), 5 days (fraction); higher = more cells survive
Irinotecan + Bortezomib = compound: CCc1c2c(nc3ccc(OC(=O)N4CCC(N5CCCCC5)CC4)cc13)-c1cc3c(c(=O)n1C2)COC(=O)[C@]3(O)CC [Irinotecan] + CC(C)C[C@H](NC(=O)[C@H](Cc1ccccc1)NC(=O)c1cnccn1)B(O)O [Bortezomib] (partner 0.002 µM)
Outline: (§1)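 Lung cancer cell lines in 1536-well plates were dosed by pin tool the day after seeding, either with one drug alone or with a fixed anchor-drug dose plus five library-drug doses (not always all listed) in √10 steps. After 5 days, cells were fixed and their nuclei stained in one step (final 0.05% Triton X-100, 1% formaldehyde, 1 ug/ml Hoechst), then counted on 4× images. Relative viability is the nuclei count in treated wells divided by that in vehicle wells. Values are medians of duplicate plates.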

RU-SKI 43 + Navitoclax = compound: CC[C@@H](C)CNCC(=O)N1CCC2=C([C@@H]1COC3=CC=CC(=C3)C)C=CS2 [RU-SKI 43] + CC1(C)CCC(c2ccc(Cl)cc2)=C(CN2CCN(c3ccc(C(=O)NS(=O)(=O)c4ccc(N[C@H](CCN5CCOCC5)CSc5ccccc5)c(S(=O)(=O)C(F)(F)F)c4)cc3)CC2)C1 [Navitoclax] (partner 0.5 µM)
Outline: as §1

RU-SKI 43 + Lapatinib = compound: CC[C@@H](C)CNCC(=O)N1CCC2=C([C@@H]1COC3=CC=CC(=C3)C)C=CS2 [RU-SKI 43] + CS(=O)(=O)CCNCc1ccc(-c2ccc3ncnc(Nc4ccc(OCc5cccc(F)c5)c(Cl)c4)c3c2)o1 [Lapatinib] (partner 2 µM)
Outline: as §1

Irinotecan + Linsitinib = compound: CCc1c2c(nc3ccc(OC(=O)N4CCC(N5CCCCC5)CC4)cc13)-c1cc3c(c(=O)n1C2)COC(=O)[C@]3(O)CC [Irinotecan] + C[C@]1(O)C[C@@H](c2nc(-c3ccc4ccc(-c5ccccc5)nc4c3)c3c(N)nccn32)C1 [Linsitinib] (partner 1 µM)
Outline: as §1

| Cell Line | relative viability (Irinotecan + Bortezomib; first compound 0.6325 µM) | relative viability (Irinotecan + Bortezomib; first compound 2 µM) | relative viability (Irinotecan + Bortezomib; first compound 6.325 µM) | relative viability (Irinotecan + Bortezomib; first compound 20 µM) | relative viability (RU-SKI 43 + Navitoclax; first compound 0.1 µM) | relative viability (RU-SKI 43 + Navitoclax; first compound 0.3162 µM) | relative viability (RU-SKI 43 + Navitoclax; first compound 1 µM) | relative viability (RU-SKI 43 + Navitoclax; first compound 3.162 µM) | relative viability (RU-SKI 43 + Navitoclax; first compound 10 µM) | relative viability (RU-SKI 43 + Lapatinib; first compound 0.1 µM) | relative viability (RU-SKI 43 + Lapatinib; first compound 0.3162 µM) | relative viability (RU-SKI 43 + Lapatinib; first compound 1 µM) | relative viability (RU-SKI 43 + Lapatinib; first compound 3.162 µM) | relative viability (RU-SKI 43 + Lapatinib; first compound 10 µM) | relative viability (Irinotecan + Linsitinib; first compound 0.6325 µM) | relative viability (Irinotecan + Linsitinib; first compound 2 µM) | relative viability (Irinotecan + Linsitinib; first compound 6.325 µM) | relative viability (Irinotecan + Linsitinib; first compound 20 µM) |
| --- | --- | --- | --- | --- | --- | --- | --- | --- | --- | --- | --- | --- | --- | --- | --- | --- | --- | --- |
| Calu-6 | 0.816 | 0.551 | 0.296 | 0.114 | 0.848 | 0.977 | 0.72 | 0.955 | 0.691 | 1.28 | 1.43 | 1.08 | 1.1 | 0.982 | 0.714 | 0.523 | 0.2 | 0.132 |
| 201T |  | 1.12 | 1.06 | 0.942 | 1.2 | 1.18 | 1.21 | 1.19 | 1.18 | 1.1 | 0.997 | 1.06 | 1.05 | 1.01 |  | 0.85 | 0.445 | 0.397 |
| SW 1573 | 0.803 | 0.745 | 0.189 | 0.162 | 0.993 | 0.93 | 0.898 | 1.03 | 0.721 | 1.27 | 1.11 | 1.07 | 1.11 | 1.16 | 0.627 | 0.534 | 0.2 | 0.178 |
| HOP-62 | 0.642 | 0.2 | 0.112 | 0.179 | 1.22 | 1.26 | 1.21 | 1.14 | 1.06 | 0.973 | 1.28 | 0.883 | 1.03 | 0.877 | 0.146 | 0.158 | 0.138 | 0.203 |
| NCI-H1651 |  | 0.849 | 0.553 | 0.227 | 1.05 | 1.24 | 1.14 | 1.01 | 1.01 | 0.846 | 0.964 | 0.98 | 0.974 | 0.764 | 0.803 | 0.542 | 0.203 | 0.159 |
| IA-LM | 0.722 | 0.355 | 0.197 | 0.0773 | 0.752 | 0.751 | 0.856 | 0.738 | 0.824 | 0.717 | 0.956 | 1.02 | 0.79 | 0.731 | 0.31 | 0.393 | 0.248 | 0.123 |
| CAL-12T | 0.944 | 0.978 | 0.491 | 0.324 | 1.2 | 1.53 | 1.54 | 1.13 | 1.14 | 0.661 | 0.759 | 0.551 | 0.562 | 0.619 | 0.589 | 0.77 | 0.366 | 0.264 |
| NCI-H2126 |  | 1.08 | 0.632 | 0.34 | 0.776 | 0.863 | 0.875 | 0.875 | 0.862 | 0.797 | 0.63 | 0.823 | 0.779 | 0.766 |  | 0.414 | 0.355 | 0.335 |
| COR-L 105 | 0.676 | 0.798 | 0.627 | 0.291 | 0.909 | 0.61 | 0.648 | 0.858 | 0.595 | 0.411 | 0.344 | 0.379 | 0.376 | 0.351 | 0.883 | 0.898 | 0.637 | 0.314 |
| NCI-H2347 | 0.512 | 0.918 | 0.493 | 0.555 | 0.718 | 0.836 | 0.904 | 0.424 | 0.7 | 0.951 | 0.829 | 1.08 | 1.04 | 0.726 | 0.761 | 0.739 | 0.498 | 0.5 |
| PC-14 | 0.831 | 0.802 | 0.178 | 0.158 | 0.962 | 1.3 | 1.08 | 0.985 | 0.957 | 0.362 | 0.362 | 0.414 | 0.335 | 0.239 | 0.902 | 0.609 | 0.188 | 0.204 |
| LOU-NH91 | 0.486 | 0.442 | 0.359 | 0.413 | 0.679 | 0.746 | 0.741 | 0.714 | 0.683 | 0.796 | 0.685 | 0.815 | 0.749 | 0.754 | 0.834 | 0.706 | 0.431 | 0.309 |
| NCI-H596 | 0.867 | 1.09 | 0.709 | 0.79 | 0.896 | 0.833 | 0.994 | 1.06 | 1.01 | 1.09 | 1.06 | 0.997 | 1.19 | 1.14 | 1.01 | 1 | 0.556 | 0.537 |
| LXF-289 | 0.896 | 0.987 | 0.263 | 0.205 | 0.982 | 0.973 | 1.03 | 0.992 | 0.91 | 0.906 | 0.88 | 0.979 | 0.989 | 0.878 | 0.951 | 0.414 | 0.2 | 0.186 |
| NCI-H727 | 0.358 | 0.57 | 0.463 | 0.464 | 0.305 | 0.355 | 0.397 | 0.35 | 0.358 | 0.797 | 0.905 | 0.84 | 0.839 | 0.927 | 0.157 | 0.334 | 0.284 | 0.391 |
| NCI-H2009 | 0.294 | 0.515 | 0.228 | 0.0808 | 1.11 | 1.21 | 1.17 | 1.15 | 1.1 | 0.899 | 0.837 | 0.901 | 0.964 | 0.905 | 0.876 | 0.493 | 0.262 | 0.221 |
| NCI-H1993 | 1.1 | 0.968 | 0.613 | 0.399 | 0.932 | 0.91 | 0.982 | 1.05 | 1.02 | 0.739 | 0.859 | 0.717 | 0.822 | 1.8 | 0.688 | 0.608 | 0.643 | 0.693 |
| HCC-366 | 0.731 | 0.361 | 0.0441 | 0.0691 | 1.04 | 1.5 | 1.06 | 1.18 | 1.05 | 1.03 | 1.33 | 1.21 | 1.15 | 1.05 | 0.443 | 0.152 | 0.0502 | 0.0674 |
| NCI-H322M | 1.34 | 0.859 | 0.564 | 0.347 | 1.15 | 1.4 | 1.23 | 1.39 | 1.15 | 0.586 | 0.635 | 0.671 | 0.635 | 0.604 | 0.551 | 0.467 | 0.366 | 0.414 |
